In series [1] the test system is non-human primates. Set-up: method as in PMID 30158150. The following applies: cited from earlier work.
Series [2] deals with mice. Also noted: method as in PMID 17132815, PMID 23652222. The following applies: cited from earlier work.
Series [3] has as its system mice. Kind of series: CFA-induced chronic inflammatory pain, thermal sensitivity (Hargreaves test). The class given is in vivo, mouse. The note with it: 15.5 µmol/kg s.c.
Series [4] relates to mice. Kind of series: CFA-induced chronic inflammatory pain, mechanical sensitivity (von Frey test). The class given is in vivo, mouse. The note with it: 15.5 µmol/kg s.c.
The test system of series [5] is mice. Kind of series: Conditioned place preference (CPP). The note with it: 15.5 µmol/kg s.c., 4-day conditioning.
Series [6] concerns mice. Kind of series: Naloxone-precipitated withdrawal syndrome. The note with it: 15.5 µmol/kg s.c. daily 5 days; naloxone 1 mg/kg s.c.
The test system of series [7] is mice. Kind of series: Open-field test (spontaneous locomotor activity). The note with it: 15.5 µmol/kg s.c. daily, day 1 to day 4.
The test system of series [8] is mice. Kind of series: Formalin test (formalin-induced acute inflammatory pain). The note with it: for %Antinociceptive effect Phase I: Phase I 0-5 min; for %Antinociceptive effect Phase II: Phase II 15-60 min.

The values that follow come from article PMC8198056 (Molecules, 2021).

As to `CC(C)C1CCC(N2CCC3(CC2)C(=O)N(CCNS(N)(=O)=O)Cc2ccccc23)CC1` (stereo not shown) [AT-121], the “Antinociception and side effects” value in series [1] was “produced antinociception with reduced respiratory depression and physical dependence”.
As to `O=C1Cc2ccccc2N1C1CCN(C2C3CCCC2CCC3)CC1` (stereo not shown) [SR16435, 1-(1-(bicyclo [3.3. 1]nonan-9-yl)piperidin-4-yl) indolin-2-one], the CPP in mice entry in series [2] is on record as “induced CPP in mice to the same extent as morphine”.
Consider `CN1CC[C@]23c4c5ccc(O)c4O[C@H]2[C@@H](O)C=C[C@H]3[C@H]1C5` [morphine, reference compound], for which the “Time of peak antihyperalgesic effect” value in series [3] is given as 30 min. The “Time points of significant reduction in thermal hyperalgesia vs saline” value in series [3] was 30 min and one hour. For the same molecule, the “% reversal of thermal sensitivity” value in series [3] (30 min) was 68.6%; in series [3] (1 h) it was 36.1%; in series [3] (2 h) it was 19.6%; in series [3] (3 h), 13.8%; in series [3] (4 h), -1.96%; in series [3] (5 h), 0.43%. The “% reversal of thermal sensitivity” value is -0.40% in series [3] (6 h) and 0.00% in series [3] (24 h). For the same molecule, the “Time points of significant effect on mechanical stimulation vs saline” value in series [4] was 30 min and one hour. Moreover, the “% reversal of mechanical sensitivity” value in series [4] (30 min) was determined as 63.4%; in series [4] (1 h), 50.6%; in series [4] (2 h) it was 18.9%; in series [4] (3 h), 6.62%; in series [4] (4 h) it was 1.57%; in series [4] (5 h), 11.7%. The “% reversal of mechanical sensitivity” value in series [4] (6 h) is listed as -2.29%; in series [4] (24 h), 1.68%. The “CPP response vs saline” value in series [5] is recorded as “significant CPP response”. Moreover, in series [6], the “Global withdrawal score vs saline” value is “significantly increased withdrawal”. In addition, the “Spontaneous locomotor activity (distance traveled) vs saline” value in series [7] is “significant increase in the distance traveled”. Further, the “%Antinociceptive effect Phase I” value in series [8] (3.11 µmol/kg s.c.) came to 19.4 ± 6.7%; in series [8] (7.77 µmol/kg s.c.), 32.6 ± 5.7%; in series [8] (15.5 µmol/kg s.c.), 38.4 ± 10.9%. In addition, the “%Antinociceptive effect Phase II” value in series [8] (3.11 µmol/kg s.c.) is reported as 24.8 ± 11.6%; in series [8] (7.77 µmol/kg s.c.), 57.5 ± 8.3%; in series [8] (15.5 µmol/kg s.c.), 79.1 ± 7.5%. In addition, the “Pain response counted between 15 and 60 min” value in series [8] (15.5 µmol/kg s.c.) is “almost complete inhibition of the pain response”.
